Assay [1] concerns the target Bcl-xL (Homo sapiens (Human), UniProt Q07817). In words: Fluorescence polarization competitive binding assay, Bcl-xL. To be noted: FP competition, 10 nM Bcl-xL, 2 nM Flu-BAK probe; read-out: Inhibitory activity IC50 Bcl-xL. On the technique in general: Fluorescence polarisation rises when a labelled molecule tumbles more slowly, as on binding a larger partner.
Method: (§1) Fluorescence polarization values were measured using the Infinite M-1000 plate reader (Tecan U.S., Research Triangle Park, N.C.) in Microfluor 1 96-well, black, round-bottom plates (Thermo Scientific). […] Plates were mixed and incubated at room temperature for 1 hour with gentle shaking to assure equilibrium. […] Equilibrium dissociation constants (Kd) were then calculated by fitting the sigmoidal dose-dependent FP increases as a function of protein concentrations using Graphpad Prism 5.0 software (Graphpad Software, San Diego, Calif.).
(§2) Mixtures of 5 μl of the tested inhibitors in DMSO and 120 μl of pre-incubated protein/probe complexes in the assay buffer were added into assay plates and incubated at room temperature for 2 hours with gentle shaking. […] FP values were measured as described above. IC50 values were determined by nonlinear regression fitting of the competition curves.
The test system of assay [2] is RS4;11 cells. Kind of assay: RS4;11 cell viability, CCK-8 assay. The format is cell-based. To be noted: Homo sapiens, RS4-11, 96 h, CCK-8, 4 days, read-out: RS4, 11 IC50 (Bcl-2 dependent). As for the experimental part:
RS4;11 cells were obtained from American Type Culture Collection (ATCC). They were used within three months of thawing fresh vials. Cells were maintained in the recommended culture medium with 10% FBS at 37° C. and an atmosphere of 5% CO2.
The effect of representative Compounds of the Disclosure on cell viability was determined using Cell Counting Kit-8 (CCK-8) assay (Dojindo, Rockville, Md.) according to the manufacturer's instructions. 200 μL of a RS4;11 cell suspension (10000 cells/well) in culture medium were seeded into 96-well plates and cultured overnight. Each tested compound was serially diluted in culture medium, and 20 μL of the compound dilution was added to the corresponding well of the cell plate. After the addition of the tested compound, the cells were incubated at 37° C. in an atmosphere of 5% CO2 for 4 days. At the end of 4 days, 10 μL of CCK-8 solution was added to each well of the plate and incubated for 1-4 hours. The plates were read at 450 nm on the microplate spectrophotometer (Epoch2, BioTek). The readings were normalized to the vehicle cells, and the IC50 was calculated by nonlinear regression analysis using GraphPad Prism 5 software.

The target of assay [3] is Bcl-2 (Homo sapiens (Human), UniProt P10415).
Method: as §1, §2
In assay [4] the test system is MV4;11 cell line. Kind of assay: MV4;11 inhibition. The format is cell-based.

Here are results for 16 molecules from patent publication US10221174B2, “N-(phenylsulfonyl)benzamides and related compounds as BCL-2 inhibitors” (THE REGENTS OF THE UNIVERSITY OF MICHIGAN, priority 2016, dated 2019).

Each structure is given as a SMILES string. Like-named read-outs stand apart in the source and are kept apart here.

Bcl-xL, sequence (Q07817 whole entry): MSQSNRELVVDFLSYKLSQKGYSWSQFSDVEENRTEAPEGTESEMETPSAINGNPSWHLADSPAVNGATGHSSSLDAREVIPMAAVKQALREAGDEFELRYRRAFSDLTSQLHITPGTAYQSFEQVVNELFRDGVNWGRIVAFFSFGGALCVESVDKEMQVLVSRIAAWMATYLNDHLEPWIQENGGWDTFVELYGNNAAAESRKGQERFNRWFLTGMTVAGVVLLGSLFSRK
Bcl-2, sequence (P10415 whole entry): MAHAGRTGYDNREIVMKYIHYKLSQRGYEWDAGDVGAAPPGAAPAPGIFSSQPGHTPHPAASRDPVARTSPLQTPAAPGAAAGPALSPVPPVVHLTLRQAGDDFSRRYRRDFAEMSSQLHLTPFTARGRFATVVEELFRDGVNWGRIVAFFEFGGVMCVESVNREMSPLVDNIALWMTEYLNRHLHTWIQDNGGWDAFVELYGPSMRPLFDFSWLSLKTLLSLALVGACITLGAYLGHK

In the case of `O=C(NS(=O)(=O)c1cccc([N+](=O)[O-])c1)c1ccc(N2CCN(CC3=C(c4ccc(Cl)cc4)CC4(CCC4)CC3)CC2)cc1Oc1cnc2[nH]ccc2c1` [Cpd. No. 4, 2-((1H-pyrrolo[2,3-b]pyridin-5-yl)oxy)-4-(4-((6-(4-chlorophenyl)spiro[3.5]non-6-en-7-yl)methyl)piperazin-1-yl)-N-((3-nitrophenyl)sulfonyl)benzamide], the IC50 (as a rule, the concentration at which inhibition is half-maximal) in assay [1] amounted to 8.6 nM; in assay [2], 427 nM; in assay [3] it was 3.1 nM.
As for `O=C(NS(=O)(=O)c1ccc(NCC2CCOCC2)c([N+](=O)[O-])c1)c1ccc(C2=CCN(CC3=C(c4ccc(Cl)cc4)CC4(CCC4)CC3)CC2)cc1Oc1cnc2[nH]ccc2c1` [compound 7, 2-((1H-pyrrolo[2,3-b]pyridin-5-yl)oxy)-4-(1-((6-(4-chlorophenyl)spiro[3.5]non-6-en-7-yl)methyl)-1,2,3,6-tetrahydropyridin-4-yl)-N-((3-nitro-4-(((tetrahydro-2H-pyran-4-yl)methyl)amino)phenyl)sulfonyl)benzamide], the results for the IC50 in assay [1] and in assay [2] were 15.7 nM and 35 nM, respectively.
Regarding `O=C(NS(=O)(=O)c1cc(F)c(NCC2CCOCC2)c([N+](=O)[O-])c1)c1ccc(N2CCN(CC3=C(c4ccc(Cl)cc4)CC4(CCC4)CC3)CC2)cc1Oc1cnc2[nH]ccc2c1` [compound 29, 2-((1H-pyrrolo[2,3-b]pyridin-5-yl)oxy)-4-(4-((6-(4-chlorophenyl)spiro[3.5]non-6-en-7-yl)methyl)piperazin-1-yl)-N-((3-fluoro-5-nitro-4-(((tetrahydro-2H-pyran-4-yl)methyl)amino)phenyl)sulfonyl)benzamide], the half-inhibitory concentration (IC50) worked out at 12 nM in assay [2] and 0.0482 µM in assay [4] (Homo sapiens, MV4-11).
The corresponding values for `O=C(NS(=O)(=O)c1ccc(NCC2CCOCC2)c([N+](=O)[O-])c1)c1ncc(N2CCN(CC3=C(c4ccc(Cl)cc4)CC4(CCC4)CC3)CC2)cc1Oc1cnc2[nH]ccc2c1` [compound 30, 3-((1H-pyrrolo[2,3-b]pyridin-5-yl)oxy)-5-(4-((6-(4-chlorophenyl)spiro[3.5]non-6-en-7-yl)methyl)piperazin-1-yl)-N-((3-nitro-4-(((tetrahydro-2H-pyran-4-yl)methyl)amino)phenyl)sulfonyl)picolinamide] are 19 nM and 0.0225 µM.
The corresponding values for `COCCOCCNc1ccc(S(=O)(=O)NC(=O)c2ncc(N3CCN(CC4=C(c5ccc(Cl)cc5)CC5(CCC5)CC4)CC3)cc2Oc2cnc3[nH]ccc3c2)cc1[N+](=O)[O-]` [compound 31, 3-((1H-pyrrolo[2,3-b]pyridin-5-yl)oxy)-5-(4-((6-(4-chlorophenyl)spiro[3.5]non-6-en-7-yl)methyl)piperazin-1-yl)-N-((4-((2-(2-methoxyethoxy)ethyl)amino)-3-nitrophenyl)sulfonyl)picolinamide] are 34 nM and 0.116 µM.
For `COCCn1cc(S(=O)(=O)NC(=O)c2ccc(N3CCN(CC4=C(c5ccc(Cl)cc5)CC5(CCC5)CC4)CC3)cc2Oc2cnc3[nH]ccc3c2)cc1[N+](=O)[O-]` [compound 35, 2-((1H-pyrrolo[2,3-b]pyridin-5-yl)oxy)-4-(4-((6-(4-chlorophenyl)spiro[3.5]non-6-en-7-yl)methyl)piperazin-1-yl)-N-((1-(2-methoxyethyl)-5-nitro-1H-pyrrol-3-yl)sulfonyl)benzamide] the same measures were 611 nM and 3.6 µM.
Consider `O=C(NS(=O)(=O)c1ccc(NC[C@H]2COCCO2)c([N+](=O)[O-])c1)c1ccc(N2CCN(CC3=C(c4ccc(Cl)cc4)CC4(CCC4)CC3)CC2)c(F)c1Oc1cnc2[nH]ccc2c1` [compound 36, (S)-N-((4-(((1,4-dioxan-2-yl)methyl)amino)-3-nitrophenyl)sulfonyl)-2-((1H-pyrrolo[2,3-b]pyridin-5-yl)oxy)-4-(4-((6-(4-chlorophenyl)spiro[3.5]non-6-en-7-yl)methyl)piperazin-1-yl)-3-fluorobenzamide], for which the IC50 is 13 nM in assay [2] and 0.0444 µM in assay [4] (Homo sapiens, MV4-11).
As to `COCCOCCNc1ccc(S(=O)(=O)NC(=O)c2cc(F)c(N3CCN(CC4=C(c5ccc(Cl)cc5)CC5(CCC5)CC4)CC3)cc2Oc2cnc3[nH]ccc3c2)cc1[N+](=O)[O-]` [compound 37, 2-((1H-pyrrolo[2,3-b]pyridin-5-yl)oxy)-4-(4-((6-(4-chlorophenyl)spiro[3.5]non-6-en-7-yl)methyl)piperazin-1-yl)-5-fluoro-N-((4-((2-(2-methoxyethoxy)ethyl)amino)-3-nitrophenyl)sulfonyl)benzamide], the IC50 was 68 nM in assay [2] and 0.154 µM in assay [4] (Homo sapiens, MV4-11).
For `O=C(NS(=O)(=O)C1=CC2C(=O)N(CC3CCOCC3)CC2C([N+](=O)[O-])=C1)c1ccc(N2CCN(CC3=C(c4ccc(Cl)cc4)CC4(CCC4)CC3)CC2)cc1Oc1cnc2[nH]ccc2c1` (stereo not drawn) [compound 38, 2-((1H-pyrrolo[2,3-b]pyridin-5-yl)oxy)-4-(4-((6-(4-chlorophenyl)spiro[3.5]non-6-en-7-yl)methyl)piperazin-1-yl)-N-((7-nitro-3-oxo-2-((tetrahydro-2H-pyran-4-yl)methyl)-2,3,3a,7a-tetrahydro-1H-isoindol-5-yl)sulfonyl)benzamide], the concentration for half-maximal inhibition (IC50) in assay [2] was 66 nM; in assay [4] (Homo sapiens, MV4-11), 0.103 µM.
Regarding `O=C(NS(=O)(=O)c1ccc(NC[C@H]2COCCO2)c([N+](=O)[O-])c1)c1cc(F)c(N2CCN(CC3=C(c4ccc(Cl)cc4)CC4(CCC4)CC3)CC2)cc1Oc1cnc2[nH]ccc2c1` [compound 39, (S)-N-((4-(((1,4-dioxan-2-yl)methyl)amino)-3-nitrophenyl)sulfonyl)-2-((1H-pyrrolo[2,3-b]pyridin-5-yl)oxy)-4-(4-((6-(4-chlorophenyl)spiro[3.5]non-6-en-7-yl)methyl)piperazin-1-yl)-5-fluorobenzamide], the values for the IC50 in assay [2] and in assay [4] were 31 nM and 0.0337 µM, respectively.
For `O=C(NS(=O)(=O)c1ccc(NCC2CCOCC2)c([N+](=O)[O-])c1)c1c(F)cc(N2CCN(CC3=C(c4ccc(Cl)cc4)CC4(CCC4)CC3)CC2)cc1Oc1cnc2[nH]ccc2c1` [compound 41, 2-((1H-pyrrolo[2,3-b]pyridin-5-yl)oxy)-4-(4-((6-(4-chlorophenyl)spiro[3.5]non-6-en-7-yl)methyl)piperazin-1-yl)-6-fluoro-N-((3-nitro-4-(((tetrahydro-2H-pyran-4-yl)methyl)amino)phenyl)sulfonyl)benzamide], the IC50 in assay [2] was 52 nM; in assay [4] (Homo sapiens, MV4-11), 0.0181 µM.
For `O=C(NS(=O)(=O)c1ccc(NCC2CCOCC2)c([N+](=O)[O-])c1)c1ccc(N2CCN(CC3=C(c4ccc(Cl)cc4)CC4(CCC4)CC3)CC2)c(F)c1Oc1cnc2[nH]ccc2c1` [compound 42, 2-((1H-pyrrolo[2,3-b]pyridin-5-yl)oxy)-4-(4-((6-(4-chlorophenyl)spiro[3.5]non-6-en-7-yl)methyl)piperazin-1-yl)-3-fluoro-N-((3-nitro-4-(((tetrahydro-2H-pyran-4-yl)methyl)amino)phenyl)sulfonyl)benzamide] the same measures were 111 nM and 0.0881 µM.
Regarding `COCCOCCNc1ccc(S(=O)(=O)NC(=O)c2ccc(N3CCN(CC4=C(c5ccc(Cl)cc5)CC5(CCC5)CC4)CC3)c(F)c2Oc2cnc3[nH]ccc3c2)cc1[N+](=O)[O-]` [compound 43, 2-((1H-pyrrolo[2,3-b]pyridin-5-yl)oxy)-4-(4-((6-(4-chlorophenyl)spiro[3.5]non-6-en-7-yl)methyl)piperazin-1-yl)-3-fluoro-N-((4-((2-(2-methoxyethoxy)ethyl)amino)-3-nitrophenyl)sulfonyl)benzamide], the IC50 was 80 nM in assay [2] and 0.126 µM in assay [4] (Homo sapiens, MV4-11).
Consider `O=C(NS(=O)(=O)c1cc([N+](=O)[O-])c2c(cnn2CC2CCOCC2)c1)c1ccc(N2CCN(CC3=C(c4ccc(Cl)cc4)CC4(CCC4)CC3)CC2)cc1Oc1cnc2[nH]ccc2c1` [compound 60, 2-((1H-pyrrolo[2,3-b]pyridin-5-yl)oxy)-4-(4-((6-(4-chlorophenyl)spiro[3.5]non-6-en-7-yl)methyl)piperazin-1-yl)-N-((7-nitro-1-((tetrahydro-2H-pyran-4-yl)methyl)-1H-indazol-5-yl)sulfonyl)benzamide], for which the half-inhibitory concentration (IC50) in assay [1] amounted to 67.5 nM; in assay [2], 252 nM.
For `O=C(NS(=O)(=O)c1cc([N+](=O)[O-])c2nn(CC3CCOCC3)cc2c1)c1ccc(N2CCN(CC3=C(c4ccc(Cl)cc4)CC4(CCC4)CC3)CC2)cc1Oc1cnc2[nH]ccc2c1` [compound 61, 2-((1H-pyrrolo[2,3-b]pyridin-5-yl)oxy)-4-(4-((6-(4-chlorophenyl)spiro[3.5]non-6-en-7-yl)methyl)piperazin-1-yl)-N-((7-nitro-2-((tetrahydro-2H-pyran-4-yl)methyl)-2H-indazol-5yl)sulfonyl)benzamide] the same measures were 13.1 nM and 43 nM.
As to `O=C(NS(=O)(=O)c1cc([N+](=O)[O-])c2[nH]c(-c3ccncc3)nc2c1)c1ccc(N2CCN(CC3=C(c4ccc(Cl)cc4)CC4(CCC4)CC3)CC2)cc1Oc1cnc2[nH]ccc2c1` [compound 66, 2-((1H-pyrrolo[2,3-b]pyridin-5-yl)oxy)-4-(4-((6-(4-chlorophenyl)spiro[3.5]non-6-en-7 yl)methyl)piperazin-1-yl)-N-((7-nitro-2-(pyridin-4-yl)-1H-benzo[d]imidazol-5-yl)sulfonyl)benzamide], the IC50 in assay [2] is 243 nM; in assay [4] (Homo sapiens, MV4-11), above 1000 µM.
